Measurements published in the NIST ThermoML archive (doi:10.1016/j.fluid.2007.01.029).
Numbers after ± are expanded uncertainties.

Conditions: Crystal

Normal melting temperature [°C]	Structure (SMILES)
5.44 ± 0.6	c1ccccc1 [benzene]
6.48 ± 0.6	C1CCCCC1 [cyclohexane]
79.99 ± 0.6	c1ccc2ccccc2c1 [naphthalene]

Structure (SMILES)	Normal melting temperature [°C]
C1CC[C@H]2CCCC[C@H]2C1 [cis-decahydronaphthalene]	-45.08 ± 0.6
C1CC[C@H]2CCCC[C@@H]2C1 [trans-decahydronaphthalene]	-30.44 ± 0.6
